Read-outs that look alike come from different tables or passages of the source.
Tests used:
recombinant agAP-AChE [1] = target: T1, recombinant agAP-AChE (Anopheles gambiae, UniProt Q869C3); test: Time-course and dilution experiments of AChE inhibition; assay type: biochemical, Anopheles gambiae sensu stricto; conditions: for inhibition at 50 µM: read-out: inhibition of the enzyme activity, agAP-AChE, 50 μM NEM
recombinant hAChE = recombinant hAChE (Homo sapiens, UniProt P22303); test: as above; assay type: biochemical
Chain of recombinant hAChE (P22303 32-614): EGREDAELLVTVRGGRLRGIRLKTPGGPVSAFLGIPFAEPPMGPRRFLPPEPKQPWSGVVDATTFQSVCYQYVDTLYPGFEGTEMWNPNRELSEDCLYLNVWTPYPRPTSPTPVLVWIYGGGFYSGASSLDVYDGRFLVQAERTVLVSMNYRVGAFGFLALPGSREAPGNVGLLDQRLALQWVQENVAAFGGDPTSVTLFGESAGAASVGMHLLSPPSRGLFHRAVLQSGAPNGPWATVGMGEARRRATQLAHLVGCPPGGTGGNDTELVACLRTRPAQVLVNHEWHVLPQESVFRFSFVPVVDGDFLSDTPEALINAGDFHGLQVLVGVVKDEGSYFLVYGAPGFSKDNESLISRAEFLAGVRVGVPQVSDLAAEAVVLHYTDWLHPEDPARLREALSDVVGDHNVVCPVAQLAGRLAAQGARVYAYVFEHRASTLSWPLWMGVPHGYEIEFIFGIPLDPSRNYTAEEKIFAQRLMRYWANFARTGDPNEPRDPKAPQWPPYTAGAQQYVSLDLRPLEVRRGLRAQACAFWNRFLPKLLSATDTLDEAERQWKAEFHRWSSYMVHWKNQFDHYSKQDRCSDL

recombinant agAP-AChE [2] = target: T1, recombinant agAP-AChE; assay type: biochemical, Anopheles gambiae sensu stricto; conditions: ≤15 min, paraoxon 333–2000 nM
recombinant agAP-AChE [3] = target: T1, recombinant agAP-AChE; test: biochemical; design: species or system Anopheles gambiae sensu stricto

T1 sequence (Q869C3 39-737): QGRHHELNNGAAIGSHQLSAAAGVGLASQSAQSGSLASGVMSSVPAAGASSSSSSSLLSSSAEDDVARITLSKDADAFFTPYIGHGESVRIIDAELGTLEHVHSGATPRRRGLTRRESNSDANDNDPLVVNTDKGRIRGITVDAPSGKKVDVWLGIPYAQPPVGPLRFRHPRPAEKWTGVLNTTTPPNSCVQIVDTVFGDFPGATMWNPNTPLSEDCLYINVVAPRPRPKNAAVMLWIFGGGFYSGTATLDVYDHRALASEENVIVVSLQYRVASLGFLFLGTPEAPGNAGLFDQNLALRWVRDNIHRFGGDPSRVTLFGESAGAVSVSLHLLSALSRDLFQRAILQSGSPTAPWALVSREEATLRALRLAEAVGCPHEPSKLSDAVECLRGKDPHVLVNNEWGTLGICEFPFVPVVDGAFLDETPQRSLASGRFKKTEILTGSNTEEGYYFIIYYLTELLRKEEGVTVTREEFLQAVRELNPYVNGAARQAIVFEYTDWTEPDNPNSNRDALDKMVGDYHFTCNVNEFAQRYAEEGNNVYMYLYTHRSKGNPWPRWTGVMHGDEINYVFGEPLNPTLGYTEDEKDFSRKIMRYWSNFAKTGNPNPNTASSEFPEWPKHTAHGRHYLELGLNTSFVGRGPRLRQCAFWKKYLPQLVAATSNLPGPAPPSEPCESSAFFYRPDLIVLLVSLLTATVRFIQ

CCN1C(=O)CCC1=O [1-ethylpyrrolidine-2,5-dione, reference compound]
irreversible or reversible inhibition (recombinant agAP-AChE [1]; agAP-AChE, inhibitor concentrations up to 10 mM, data not shown): did not irreversibly or reversibly inhibit | irreversible or reversible inhibition (recombinant hAChE; inhibitor concentrations up to 10 mM, data not shown): did not irreversibly or reversibly inhibit

CCN1C(=O)C=CC1=O [NEM, N-ethylmaleimide, reference compound]
irreversible inhibition (time-course and dilution experiments) (recombinant agAP-AChE [1]; agAP-AChE): inability of NEM to irreversibly inhibit agAP-AChE | inhibition at 50 µM (recombinant agAP-AChE [1]; 30 minutes): 40 ± 1% | inhibition at 50 µM (recombinant agAP-AChE [1]; immediately): 36 ± 2%

O=C1C=CC(=O)N1CCCCCCCCCCCCCCCCCCCC[n+]1ccccc1.[Br-] [PM20, 1-(20-(2,5-Dioxo-2,5-dihydro-1H-pyrrol-1-yl)eicosyl)pyridinium bromide]
kinact/KI fold higher than that of paraoxon (recombinant agAP-AChE [2]): 239 fold | Ki (recombinant agAP-AChE [3]): 400 nM | irreversible inhibition (time-course and dilution experiments) (recombinant agAP-AChE [1]; agAP-AChE): irreversibly inhibited agAP-AChE | decrease of the enzyme activity (recombinant agAP-AChE [1]; agAP-AChE, combination of 50 μM NEM and 6.7 nM PM20 for 30 minutes): 94 ± 3% | inhibition at 0.0067 µM (recombinant agAP-AChE [1]; read-out: enzyme activity inhibited, agAP-AChE, incubated with 50 μM NEM, then treated with 6.7 nM PM20 for 30 minutes): 96 ± 4% | irreversible inhibition (time-course and dilution experiments) (recombinant hAChE): not hAChE

O=C([O-])C(F)(F)F.O=C1CCC(=O)N1CCCCCCCCCCCCCCCCCCCC[n+]1ccccc1 [PMS20, 1-(20-(2,5-Dioxopyrrolidin-1-yl)eicosyl)pyridin-1-ium 2,2,2-trifluoroacetate]
Ki (recombinant agAP-AChE [3]): 420 nM | irreversible inhibition (time-course and dilution experiments) (recombinant agAP-AChE [1]; agAP-AChE): irreversibly inhibited neither | irreversible inhibition (time-course and dilution experiments) (recombinant hAChE): irreversibly inhibited neither

Cl.O=C1C=CC(=O)N1CCCCCCCCCCCCCCCCCCN1CCCCC1 [PY18, 1-(18-(Piperidin-1-yl)octadecyl)-1H-pyrrole-2,5-dione hydrochloride]
irreversible inhibition (time-course and dilution experiments) (recombinant agAP-AChE [1]; agAP-AChE): irreversibly inhibited agAP-AChE | irreversible inhibition (time-course and dilution experiments) (recombinant hAChE): not hAChE

Cl.O=C1CCC(=O)N1CCCCCCCCCCCCCCCCCCN1CCCCC1 [PYS18, 1-(18-(Piperidin-1-yl)octadecyl)pyrrolidine-2,5-dione hydrochloride]
Ki (recombinant agAP-AChE [3]): 26200 nM | irreversible inhibition (time-course and dilution experiments) (recombinant agAP-AChE [1]; agAP-AChE): irreversibly inhibited neither | irreversible inhibition (time-course and dilution experiments) (recombinant hAChE): irreversibly inhibited neither

CCOP(=O)(OCC)Oc1ccc([N+](=O)[O-])cc1 [Paraoxon, paraoxon, reference compound]
irreversible inhibition (time-course and dilution experiments) (recombinant agAP-AChE [1]; agAP-AChE): irreversibly inhibited both enzymes | irreversible inhibition (time-course and dilution experiments) (recombinant hAChE): irreversibly inhibited both enzymes
